This passage reports GI50 and TGI results from PubChem BioAssay (NCI).

Among the test systems are LOX IMVI melanoma; SK-MEL-5 melanoma; NCI-H226 lung; SNB-19 CNS; HCT-116 colon; CAKI-1 renal; MCF7 breast; UACC-62 melanoma; EKVX NSCLC; SF-539 CNS.
What all share (test): NCI-60 cell line screen, 48 h

Structures are written as SMILES. Several values for one entry are separate records, joined by “and”; a condition that tells them apart may be missing. Equal values may be shown once.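 Values below derive from 48-hour exposures of cells grown in 96-well plates, with endpoints linearly interpolated between the two concentrations bracketing the appropriate inhibition level. GI50 = concentration required for 50% inhibition of growth. Definition used: TGI = concentration required for complete inhibition of growth.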 *1 amine or outer side, *2 acyl side, *3 side chain or, on linkers, in order; H or OH if unused. Where a SMILES comes first, the peptide text is derived from it. [ ]: non-standard residue; d: D form. The star is where a group is joined. ξ: configuration not given here. X15 = CCN(CC)c1ccc2cc(N*)c(=O)oc2c1; dIva = CC[C@@](C)(N)C(=O)O; X14 = O=C(OCCN[*:1])[*:2]; Aib = CC(C)(N)C(=O)O; ξP = O=C(O)C1CCCN1; βAla = NCCC(=O)O

Turning to `CCN(CC)c1ccc2cc(NC(=O)OCCNC(=O)CCNC(=O)[C@H](CC(C)C)NC(=O)C(C)(C)NC(=O)C(C)(C)NC(=O)[C@H](CC(C)C)NC(=O)CCNC(=O)C(C)(C)NC(=O)[C@H](CC(C)C)NC(=O)CCNC(=O)[C@@](C)(CC)NC(=O)[C@H](C)NC(=O)CCNC(=O)C(C)(C)NC(=O)[C@H](C)NC(=O)[C@@H]3CCCN3C(=O)[C@@](C)(CC)NC(=O)[C@H](Cc3ccccc3)NC(=O)C3CCCN3C(=O)C(C)(C)NC(=O)C3CCCN3C(=O)C(C)(C)NC(C)=O)c(=O)oc2c1` (stereo partly specified) (Ac-[Aib][ξP][Aib][ξP]F[dIva]PA[Aib][βAla]A[dIva][βAla]L[Aib][βAla]L[Aib][Aib]L[βAla][X14]-X15), the GI50 in the test on LOX IMVI melanoma is 0.00192 µM; with SK-MEL-5 melanoma it was 0.00256 µM; in the test with NCI-H226 lung, 0.00561 µM; with SNB-19 CNS, 3.55 nM; with HCT-116 colon, 0.0035 µM; with CAKI-1 renal, 0.156 µM. The GI50 with MCF7 breast was 3.13 nM; with UACC-62 melanoma, 0.00385 µM; with EKVX NSCLC, 0.00421 µM; with SF-539 CNS it was 0.00491 µM. The TGI is 0.00384 µM in the test on LOX IMVI melanoma; 0.00666 µM in the test with SK-MEL-5 melanoma; 0.0348 µM in the test with NCI-H226 lung; 0.0426 µM with SNB-19 CNS; 0.0455 µM in the test with HCT-116 colon; 0.304 µM in the test with CAKI-1 renal. The TGI in the test with MCF7 breast is 0.0286 µM; in the test on UACC-62 melanoma it was 0.0189 µM; with EKVX NSCLC it was 0.0241 µM; in the test with SF-539 CNS, 0.0202 µM.
In the case of `CCC(/C=C/c1ccccc1)=N\Nc1ccc(Cl)c(Cl)c1`, the TGI is greater than 100 µM in the test with LOX IMVI melanoma; 30 µM in the test on SK-MEL-5 melanoma; 72.7 µM with NCI-H226 lung; greater than 100 µM in the test with SNB-19 CNS; greater than 100 µM in the test with HCT-116 colon; greater than 100 µM in the test on CAKI-1 renal. The TGI with MCF7 breast is greater than 100 µM; with UACC-62 melanoma, 31.5 µM; with EKVX NSCLC it was greater than 100 µM; with SF-539 CNS, 66.1 µM.
Regarding `O=C(COc1cccc(/C=C2\COc3ccc(Cl)cc3C2=O)c1)c1ccc(Cl)cc1`, the GI50 in the test on LOX IMVI melanoma was 3.2 µM; in the test with SK-MEL-5 melanoma, 12.8 µM; in the test with NCI-H226 lung, 14.1 µM; in the test on SNB-19 CNS it was 14500 nM; in the test with HCT-116 colon, 3.28 µM; in the test on CAKI-1 renal, 12.1 µM. Also, the GI50 was 1250 nM in the test on MCF7 breast, 11 µM in the test on UACC-62 melanoma, 12.5 µM in the test with EKVX NSCLC and 15.4 µM in the test with SF-539 CNS. The TGI was 13.2 µM in the test with LOX IMVI melanoma; 25.3 µM with SK-MEL-5 melanoma; 31.2 µM with NCI-H226 lung; 27.7 µM with SNB-19 CNS; 11.3 µM with HCT-116 colon; 24.5 µM with CAKI-1 renal. For the same compound, the TGI in the test with MCF7 breast turned out to be 4.76 µM; in the test with UACC-62 melanoma, 23.1 µM; with EKVX NSCLC, 25.8 µM; in the test with SF-539 CNS, 28.7 µM.
As for `Cc1ccc2c(c1)C(=O)c1c-2n(CCCBr)c(=O)c2cc([N+](=O)[O-])ccc12`, the GI50 was 17.9 µM in the test with LOX IMVI melanoma; 33 µM in the test on SK-MEL-5 melanoma; 96.9 µM in the test with NCI-H226 lung; 47900 nM in the test with SNB-19 CNS; 18.7 µM in the test on HCT-116 colon; 5.28 µM with CAKI-1 renal. Besides, the GI50 is 4460 nM with MCF7 breast, 26.1 µM with UACC-62 melanoma, greater than 100 µM in the test on EKVX NSCLC and greater than 100 µM with SF-539 CNS. Further, the TGI in the test on LOX IMVI melanoma was greater than 100 µM; with SK-MEL-5 melanoma it was greater than 100 µM; in the test on NCI-H226 lung it was greater than 100 µM; with SNB-19 CNS it was greater than 100 µM; in the test with HCT-116 colon, greater than 100 µM; in the test on CAKI-1 renal it was 32.6 µM. Also, the TGI in the test on MCF7 breast, in the test on UACC-62 melanoma, in the test with EKVX NSCLC and with SF-539 CNS was greater than 100 µM each time.
As to `CC12CC(OC(=O)[C@]1(C)O)[C@@H]([C@]1(O)CC[C@H]3[C@@H]4C[C@H]5O[C@]56[C@@H](O)C=CC(=O)[C@]6(C)[C@H]4CC[C@@]31C)C2` (stereo partly specified), the TGI was 15.9 µM in the test with LOX IMVI melanoma; 17.8 µM in the test on SK-MEL-5 melanoma; greater than 100 µM in the test on NCI-H226 lung; greater than 100 µM in the test on SNB-19 CNS; 13.2 µM with HCT-116 colon; 24.9 µM in the test with CAKI-1 renal. For the same compound, the TGI with MCF7 breast was 17.2 µM; in the test with UACC-62 melanoma it was 37.2 µM; with EKVX NSCLC it was 9.94 µM; in the test on SF-539 CNS, 7.29 µM.
Regarding `CC(C)c1ccc(Nc2nccc(-c3cnn4ncccc34)n2)cc1`, the GI50 with LOX IMVI melanoma was 0.209 µM; with SK-MEL-5 melanoma it was 0.218 µM; in the test with NCI-H226 lung it was 0.227 µM; in the test with SNB-19 CNS it was 842 nM; in the test with HCT-116 colon, 0.324 µM; in the test with CAKI-1 renal it was 0.8 µM. Moreover, the GI50 in the test with MCF7 breast is 65.3 nM; in the test with UACC-62 melanoma it was 0.326 µM; in the test on EKVX NSCLC it was 0.64 µM; in the test with SF-539 CNS it was 0.481 µM. Moreover, the TGI in the test on LOX IMVI melanoma is greater than 7.75 µM; in the test with SK-MEL-5 melanoma, 0.749 µM; in the test on NCI-H226 lung, 2.45 µM; in the test on SNB-19 CNS, greater than 25 µM; in the test with HCT-116 colon, 4.29 µM; in the test with CAKI-1 renal, greater than 15.4 µM. Also, the TGI in the test on UACC-62 melanoma was found to be 1.13 µM; in the test with EKVX NSCLC it was 10.2 µM; in the test with SF-539 CNS, 1.68 µM.
Turning to `CS(=O)(=O)Nc1ccc(N=Cc2c(O)[nH]c3ccccc23)cc1`, the GI50 in the test on LOX IMVI melanoma is greater than 25 µM; in the test on SK-MEL-5 melanoma it was greater than 25 µM; with NCI-H226 lung, greater than 25 µM; in the test with SNB-19 CNS, greater than 25000 nM; in the test on HCT-116 colon it was greater than 25 µM; in the test on CAKI-1 renal it was greater than 13.9 µM. The GI50 was greater than 25000 nM with MCF7 breast, greater than 25 µM with UACC-62 melanoma, greater than 25 µM with EKVX NSCLC and greater than 25 µM in the test with SF-539 CNS. Also, the TGI in the test with LOX IMVI melanoma, with SK-MEL-5 melanoma, with NCI-H226 lung, in the test with SNB-19 CNS, in the test on HCT-116 colon and with CAKI-1 renal was greater than 25 µM throughout. The TGI with MCF7 breast, in the test with UACC-62 melanoma, with EKVX NSCLC and in the test with SF-539 CNS was greater than 25 µM each time.
Turning to `CCCCN(CCCC)c1ccc(C(=NC(C)CCCN(CC)CC)c2ccc(N(C)C)cc2)cc1` (stereo unspecified), the GI50 in the test with LOX IMVI melanoma was 0.775 µM; in the test on SK-MEL-5 melanoma, 0.806 µM; with NCI-H226 lung it was 1.18 µM; in the test on SNB-19 CNS, 1140 nM; in the test on HCT-116 colon, 0.537 µM; in the test on CAKI-1 renal, 1.17 µM. Also, the GI50 in the test on MCF7 breast is 836 nM; with UACC-62 melanoma it was 0.909 µM; in the test with EKVX NSCLC it was 1.05 µM; with SF-539 CNS, 0.899 µM. Moreover, the TGI with LOX IMVI melanoma was 1.46 µM; in the test on SK-MEL-5 melanoma, 1.5 µM; in the test with NCI-H226 lung it was 3.06 µM; in the test on SNB-19 CNS, 2.82 µM; in the test with HCT-116 colon it was 1.27 µM; with CAKI-1 renal it was 3.41 µM. In addition, the TGI turned out to be 1.95 µM in the test with MCF7 breast, 1.91 µM in the test on UACC-62 melanoma, 2.95 µM in the test on EKVX NSCLC and 1.72 µM with SF-539 CNS.
In the case of `Nc1ccc(-c2ccc(N)cc2I)c(I)c1`, the GI50 was 16.3 µM in the test on LOX IMVI melanoma; 13.9 µM in the test on SK-MEL-5 melanoma; 17.2 µM in the test with NCI-H226 lung; 19000 nM in the test on SNB-19 CNS; 15.2 µM in the test with HCT-116 colon; 14.5 µM with CAKI-1 renal. Besides, the GI50 was 18400 nM in the test with MCF7 breast, 12.1 µM in the test on UACC-62 melanoma, 19.1 µM in the test on EKVX NSCLC and 14.5 µM in the test on SF-539 CNS. For the same compound, the TGI with LOX IMVI melanoma came out at 31.2 µM; with SK-MEL-5 melanoma it was 27.2 µM; in the test on NCI-H226 lung it was 45.4 µM; in the test on SNB-19 CNS, 77.3 µM; in the test on HCT-116 colon, 32 µM; in the test on CAKI-1 renal, 42.9 µM. The TGI is 58.1 µM in the test with MCF7 breast, 33.2 µM in the test with UACC-62 melanoma, 70.1 µM in the test on EKVX NSCLC and 32.2 µM in the test with SF-539 CNS.
In the case of `O=C(OCCBr)c1ccc(Cl)c([N+](=O)[O-])c1`, the GI50 is 10.2 µM in the test on LOX IMVI melanoma; 14.9 µM with SK-MEL-5 melanoma; 17.7 µM in the test with NCI-H226 lung; 1870 nM with SNB-19 CNS; 14.3 µM in the test on HCT-116 colon; 7.78 µM in the test on CAKI-1 renal. The GI50 with MCF7 breast is 2510 nM; in the test on UACC-62 melanoma, 14.5 µM; with EKVX NSCLC, 18.4 µM; with SF-539 CNS, 19.6 µM. The TGI in the test on LOX IMVI melanoma was determined as 26 µM; with SK-MEL-5 melanoma it was 28.5 µM; with NCI-H226 lung, 37.6 µM; in the test on SNB-19 CNS it was 3.74 µM; in the test with HCT-116 colon, 30.4 µM; in the test on CAKI-1 renal, 23.1 µM. For the same compound, the TGI is 7.5 µM in the test on MCF7 breast, 28.5 µM with UACC-62 melanoma, 37.1 µM in the test on EKVX NSCLC and 36 µM with SF-539 CNS.
As to `Nc1nc(N)c(N=O)c(OCC2CCCCC2)n1`, the GI50 in the test on LOX IMVI melanoma is 4.77 µM; in the test with SK-MEL-5 melanoma, 13.7 µM; in the test with NCI-H226 lung, 6.65 µM; in the test with CAKI-1 renal it was 3.99 µM; with MCF7 breast, 3460 nM; with EKVX NSCLC, 27 µM. For the same compound, the GI50 in the test on SF-539 CNS is 15.6 µM. In addition, the TGI in the test on LOX IMVI melanoma was greater than 100 µM; in the test with SK-MEL-5 melanoma, 60 µM and 42 µM; in the test on NCI-H226 lung it was > 100 µM and 46.5 µM; in the test with SNB-19 CNS, greater than 100 µM; with HCT-116 colon it was greater than 100 µM; in the test with CAKI-1 renal it was 34 µM and 78.9 µM. Besides, the TGI with MCF7 breast is greater than 100 µM; in the test with UACC-62 melanoma it was 42.6 µM and 40.7 µM; with EKVX NSCLC, > 94.5 µM and 64.2 µM; with SF-539 CNS it was 56.1 µM and 36.5 µM.
